Test results from ChEMBL document CHEMBL5303710, “ECBD screening data for assay EOS300044” (2022).

These molecules were tested against Replicase polyprotein 1ab (Severe acute respiratory syndrome coronavirus 2) (UniProt P0DTD1) (assay: Inhibition of SARS-CoV-2 3CL-Pro proteolytic cleavage of a dual-labeled substrate by FRET at 1mM DTT.).
Type: functional
Parameters: assay stage
In the case of `CC(Cc1ccc(O)c(O)c1)C(C)Cc1ccc(O)c(O)c1` (centres undefined), the IC50 relative is reported as > 20 µM.
`O=C(Nc1ccccc1)Nc1ccc(-c2ccc(C(=O)[C@@H]3CCC[C@H]3C(=O)O)cc2)cc1` was tested, and the IC50 relative was > 20 µM.
With `Oc1cc2c(cc1O)C(c1ccccc1)CNCC2` (centres undefined) the IC50 relative was > 20 µM.
`O=C(O)[C@@H](S)[C@@H](S)C(=O)O` showed an IC50 relative of 0.0836 µM.
For `O=C(O)c1c(Cl)c(Cl)c(Cl)c(Cl)c1-c1c2cc(I)c(=O)c(I)c-2oc2c(I)c(O)c(I)cc12`, the IC50 relative was > 20 µM.
`O=c1c2ccccc2sn1-c1ccccc1` was tested, and the IC50 relative was < 0.02 µM.
In the case of `COc1ncc(-c2ccc3nccc(-c4ccnnc4)c3c2)cc1NS(=O)(=O)c1ccc(F)cc1F`, the IC50 relative is reported as > 20 µM.
With `NC(Cc1cc(O)c(O)cc1O)C(=O)O` (racemic) the IC50 relative was > 20 µM.
With `O=C(c1ccc(Cl)cc1)c1cc([N+](=O)[O-])ccc1N1CCOCC1` the IC50 relative was > 20 µM.
In the case of `Nc1ccc(O)c2ncccc12`, the IC50 relative is reported as > 20 µM.
With `CN(C)S(=O)(=O)c1cccc(-n2sc3ccccc3c2=O)c1` the IC50 relative was < 0.02 µM.
With `CC1=CC(=O)c2ccccc2C1=O` the IC50 relative was > 20 µM.
With `O=C1C(Cl)=C(N2CCOCC2)C(=O)N1c1ccc(Cl)c(Cl)c1` the IC50 relative was > 20 µM.
For `O=c1c(O)cccc2cc(O)c(O)c(O)c12`, the IC50 relative was > 20 µM.
`Oc1cc2c(cc1C(c1ccc(C(F)(F)F)cc1)N1CCOCC1)OCO2` (centres undefined) was tested, and the IC50 relative was > 20 µM.
With `Cc1cc(C)cc(N2C(=O)CC(Sc3nc[nH]n3)C2=O)c1` (centres undefined) the IC50 relative was > 20 µM.
`O=[N+]([O-])c1ccc(Sc2cccc[n+]2[O-])c2nonc12` gave an IC50 relative of 0.53 µM.
With `CCCCn1c(NC(=O)c2cccs2)c(C#N)c2nc3ccccc3nc21` the IC50 relative was > 20 µM.
In the case of `Cc1ccc(C)c(-n2sc3cc(F)ccc3c2=O)c1`, the IC50 relative is reported as < 0.02 µM.
`Cc1ccc(S(=O)(=O)N[C@@H](Cc2ccccc2)C(=O)CCl)cc1` showed an IC50 relative of 0.839 µM.
`CC(C)(C)OC(=O)NCCc1nnc(S(=O)(=O)Cc2ccc(Cl)cc2Cl)o1` was tested, and the IC50 relative was 7.29 µM.
`Cc1cc(-c2ccc(/N=N/c3ccc4c(S(=O)(=O)O)cc(S(=O)(=O)O)c(N)c4c3O)c(C)c2)ccc1/N=N/c1ccc2c(S(=O)(=O)O)cc(S(=O)(=O)O)c(N)c2c1O` was tested, and the IC50 relative was 0.0219 µM.
`O=C(CC1Sc2ncnn2C1=O)Nc1ccc(Br)cc1` (centres undefined) was tested, and the IC50 relative was > 20 µM.
For `Cn1sc(=O)n(Cc2ccccc2)c1=O`, the IC50 relative was < 0.02 µM.
`CCOC(=O)c1c(N)sc(-c2ccccc2)c1C` was tested, and the IC50 relative was 3.61 µM.
In the case of `CCN1CCN(C(c2ccc(C(F)(F)F)cc2)c2ccc3cccnc3c2O)CC1` (centres undefined), the IC50 relative is reported as 1.34 µM.
With `COC(=O)CC[C@H](NC(=O)[C@H](CC(=O)OC)NC(=O)OCc1ccccc1)C(=O)N[C@H](C(=O)N[C@@H](CC(=O)OC)C(=O)CF)C(C)C` the IC50 relative was < 0.02 µM.
For `O=C(c1cccs1)c1no[n+]([O-])c1C(=O)c1cccs1`, the IC50 relative was > 20 µM.
`COc1ccc2[nH]c(S)nc2c1` was tested, and the IC50 relative was > 20 µM.
With `Sc1nnnn1-c1ccccc1` the IC50 relative was > 20 µM.
In the case of `COc1cc(N(C)C)cc(CN(C)CCc2ccc([N+](=O)[O-])cc2)c1O`, the IC50 relative is reported as > 20 µM.
For `Cc1ccc(-n2sc3ccccc3c2=O)cc1`, the IC50 relative was < 0.02 µM.
With `Cc1c(-c2ccc(N3CCc4cccc(C(=O)Nc5nc6ccccc6s5)c4C3)nc2C(=O)O)cnn1CC12CC3CC(CC(C3)C1)C2` the IC50 relative was > 20 µM.
For `COc1ccc2[nH]c3c(S)ncnc3c2c1`, the IC50 relative was > 20 µM.
`S=C=NCc1ccccc1` was tested, and the IC50 relative was > 20 µM.
`CCOc1cc(C(Nc2cc(C)ccn2)c2ccc3cccnc3c2O)ccc1OC` (centres undefined) was tested, and the IC50 relative was > 20 µM.
For `Cc1ccc(-n2sc(=O)n(Cc3ccc(F)cc3)c2=O)cc1`, the IC50 relative was 0.148 µM.
In the case of `CN1CCN(C(=O)c2ccc(-c3ccc4c(C=O)c(O)ccc4c3)s2)CC1`, the IC50 relative is reported as 5.65 µM.
With `CCN(CC)S(=O)(=O)c1cccc(-n2sc3ccccc3c2=O)c1` the IC50 relative was < 0.02 µM.
`c1ccc2sc(SSc3nc4ccccc4s3)nc2c1` gave an IC50 relative of 0.537 µM.
In the case of `O=C1C(Cl)=C(Cl)C(=O)C(Cl)=C1Cl`, the IC50 relative is reported as 0.183 µM.
Molecule `O=C(/C=C/c1ccc2ccccc2n1)c1ccncc1` has an IC50 relative of 0.191 µM.
For `Cc1c(OCC(F)(F)F)ccnc1C[S+]([O-])c1nc2ccccc2[nH]1` (centres undefined), the IC50 relative was > 20 µM.
`O=C(CCl)c1ccccc1` showed an IC50 relative of 0.246 µM.
For `Cc1cc(-c2ccc(/C=C3/S/C(=N\c4ccc(Cl)c(C(=O)O)c4)NC3=O)o2)c([N+](=O)[O-])cc1C`, the IC50 relative was > 20 µM.
In the case of `O=C(NC(=S)N1CCCc2ccccc21)c1ccccc1`, the IC50 relative is reported as > 20 µM.
For `S=C=Nc1cccc(NC(=S)NCCCCNC(=S)Nc2cccc(N=C=S)c2)c1`, the IC50 relative was > 20 µM.
With `CCN(CC)C(=S)S` the IC50 relative was > 20 µM.
For `Sc1nnc(Nc2ccccc2)s1`, the IC50 relative was > 20 µM.
In the case of `Sc1nnc(-c2ccccc2Cl)o1`, the IC50 relative is reported as 7.71 µM.
In the case of `COc1ccnc(C[S+]([O-])c2nc3cc(OC(F)F)ccc3[nH]2)c1OC` (centres undefined), the IC50 relative is reported as > 20 µM.
For `COc1ccc2[nH]c([S+]([O-])Cc3ncc(C)c(OC)c3C)nc2c1` (centres undefined), the IC50 relative was > 20 µM.
`O=c1cc(-c2ccccc2)oc2cc(O)c(O)c(O)c12` was tested, and the IC50 relative was > 20 µM.
Work on `Nc1nc(S)c2ncn(C3OC(CO)C(O)C3O)c2n1` (centres undefined) yielded an IC50 relative of 1.45 µM.
